Consider two substances from US9453226B2, “Protection of cells from Alu-RNA-induced degeneration and inhibitors for protecting cells” (UNIVERSITY OF KENTUCKY RESEARCH FOUNDATION, priority 2011, dated 2016).

Assay [1] relates to RPE. The experiment in a line: pAlu-induced RPE degeneration in wild-type mice, inhibitors given intravitreously. Format: in vivo. To be noted: WT mice, subretinal pAlu, inhibitor intravitreous, fundus photographs and ZO-1 flat mounts. Here is the method: Subretinal injection and imaging. Subretinal injections (1 μL) were performed using a Pico-Injector (PLI-100, Harvard Apparatus). Plasmids were transfected in vivo using 10% Neuroporter (Genlantis). Fundus imaging was performed on a TRC-50 IX camera (Topcon) linked to a digital imaging system (Sony). RPE flat mounts were immunolabeled using antibodies against zonula occludens-1 (Invitrogen).
Retinal photographs of dilated mouse eyes were taken with a TRC-50 IX camera (Topcon) linked to a digital imaging system (Sony).
Human eyes fixed in 2-4% paraformaldehyde were prepared as eyecups, cryoprotected in 30% sucrose, embedded in optimal cutting temperature compound (Tissue-Tek OCT; Sakura Finetek), and cryosectioned into 10 μm sections. Depigmentation was achieved using 0.25% potassium permanganate and 0.1% oxalic acid. Immunohistochemical staining was performed with the rabbit antibody against NLRP3 (1:100, Sigma Aldrich) or rabbit antibody against Caspase-1 (prediluted, AbCam). Isotype IgG was substituted for the primary antibody to assess the specificity of the staining. Bound antibody was detected with biotin-conjugated secondary antibodies, followed by incubation with ABC reagent and visualized by Vector Blue (Vector Laboratories). Levamisole (Vector Laboratories) was used to block endogenous alkaline phosphatase activity. Slides were washed in PBS, counterstained with neutral red (Fisher Scientific), rinsed with deionized water, air dried, and then mounted in Vectamount (Vector Laboratories). Fluorescent labeling of human tissue was performed with the rabbit antibody against PYCARD (1:50, Clone N-15, Santa Cruz Biotechnology) Immunolabeling was visualized by fluorescently conjugated anti-rabbit secondary antibody (Invitrogen). Tissue autofluorescence was quenched by incubating the sections in 0.3% Sudan black (Fisher Scientific). Sections were mounted in Vectashield with DAPI (Vector Laboratories). Mouse RPE/choroid flat mounts were fixed with 4% paraformaldehyde or 100% methanol, stained with rabbit antibodies against human zonula occludens-1 (1:100, Invitrogen) and visualized with Alexa594 (Invitrogen). All images were obtained using the Leica SP-5 or Zeiss Axio Observer Z1 microscopes.
Subretinal injections (1 μL) in mice were performed using a Pico-Injector (PLI-100, Harvard Apparatus). In vivo transfection of plasmids coding for two different Alu sequences (pAlu) or empty control vector (pNull) (Bennett et al., 2008; Kaneko et al., 2011; Shaikh et al., 1997) was achieved using 10% Neuroporter (Genlantis). AAV1-BEST1-Cre (Alexander and Hauswirth, 2008) or AAV1-BEST1-GFP were injected at 1.0×10^11 pfu/mL and in vitro transcribed Alu RNA was injected at 0.3 mg/mL.
siRNAs formulated in siRNA buffer (20 mM KCL, 0.2 mM MgCl2 in HEPES buffer at pH 7.5; Dharmacon) or phosphate buffered saline (PBS; Sigma-Aldrich); the TLR4 antagonist Ultra Pure Rhodobacter sphaeroides LPS (LPS-RS, InvivoGen), a peptide inhibitor of MyD88 homodimerization IMG-2005 (IMGENEX), control inhibitor (IMGENEX), recombinant IL-18 (Medical & Biological Laboratories), neutralizing rat antibodies against mouse IL-1β (IMGENEX), neutralizing rat antibodies against mouse IL-18 (Medical & Biological Laboratories), isotype control IgGs (R&D Systems or eBioscience as appropriate), Caspase-1 inhibitor Z-WEHD-FMK (R&D Systems), Caspase control inhibitor Z-FA-FMK (R&D Systems), DPI (Enzo Life Sciences), Mito-TEMPO (Enzo Life Sciences), MitoQ and dTPP (both adsorbed to cyclodextrin and provided by M.P. Murphy, MRC Mitochondrial Biology Unit), and gp91ds-tat and scrambled gp91 ds-tat (both Anaspec), were dissolved in phosphate buffered saline (PBS; Sigma-Aldrich) or dimethyl sulfoxide (DMSO; Sigma-Aldrich), and injected into the vitreous humor in a total volume of 1 μL with a 33-gauge Exmire microsyringe (Ito Corporation). […] As a control, Luc siRNA-chol (17+2 nt) was used with identical dosages. […]

Assay [2] deals with IRAK1/4 phosphorylation. The experiment in a line: IRAK1/4 phosphorylation in human RPE cells (Western blot). Format: cell-based. To be noted: human RPE cells; normalized to Vinculin. How it is done: Protein abundance was assessed by Western blot analysis using antibodies against Caspase-1 (1:500; Invitrogen), pIRAK1 (1:500; Thermo Scientific), pIRAK4 (1:500, Abbomax), PYCARD (1:200, Santa Cruz Biotechnology), NLRP3 (1:500, Enzo Life Sciences) and Vinculin (1:1,000; Sigma-Aldrich). Caspase-1 activity was visualized using Caspalux1 E1D2 (Oncolmmunin) according to manufacturer's instructions.
Tissues or cells were homogenized in lysis buffer (10 mM Tris base, pH 7.4, 150 mM NaCl, 1 mM EDTA, 1 mM EGTA, 1% Triton X-100, 0.5% NP-40, protease and phosphatase inhibitor cocktail (Roche)). Protein concentrations were determined using a Bradford assay kit (Bio-Rad) with bovine serum albumin as a standard. Proteins (40-100 μg) were run on NuPAGE Bis-Tris gels (Invitrogen) and transferred to Immun-Blot PVDF membranes (Bio-Rad). Cells were scraped in hot Laemmli buffer (62.5 mM Tris base, pH 6.8, 2% SDS, 5% 2-Mercaptoethanol, 10% Glycerol, 0.01% Bromophenol Blue). Samples were boiled and run on 4-20% NuPAGE Tris-Glycine gels (Invitrogen). The transferred membranes were blocked for 1 h at RT and incubated with antibodies against human Caspase-1 (1:500; Invitrogen), mouse Caspase 1 (1:500; MBL), NLRP3 (1:1000; Enzo Life Sciences), PYCARD (1:1000, RayBiotech), phospho-IRAK1 (S376) (1:500, Thermo Scientific), phospho-IRAK4 (T345) (1:500, AbboMax), DICER1 (1:2,000; Bethyl), MyD88 (1:1,000; Cell Signaling), and mouse IL-18 (1:200; MBL) at 4° C. overnight. Protein loading was assessed by immunoblotting using an anti-Vinculin antibody (1:1,000; Sigma-Aldrich). The secondary antibodies were used (1:5,000) for 1 h at RT. The signal was visualized by enhanced chemiluminescence (ECL plus) and captured by VisionWorksLS Image Acquisition and Analysis software (Version 6.7.2, UVP, LLC).
In general terms: Immunoblotting shows a protein as a band on a membrane.

Assay [3] deals with human RPE cells. Nature of the assay: Loss of human RPE cell viability induced by DICER1 antisense. Format: cell-based.

Take “DRQIKIWFQNRRMKWKKRDVLPGT [MyD88 inhibitory peptide]”: in assay [1], the “pAlu-induced RPE degeneration” value is recorded as “inhibited”. Also, the “Alu RNA-induced IRAK1/4 phosphorylation” value in assay [2] is on record as “reduces”. Moreover, the “loss of human RPE cell viability induced by DICER1 antisense (AS)” value in assay [3] is reported as “rescues”.
Z-WEHD-FMK: the “pAlu-induced RPE degeneration” value is on record as “blocked” in assay [1] and “protects” in assay [1] (listed as Caspase-1 peptide inhibitor). In assay [2], the “Alu RNA-induced IRAK1/4 phosphorylation” value is recorded as “reduced”.
